“Also recorded” adds a separate entry of the source. Like-named read-outs stand apart in the source and are kept apart here.
Assays:
[1] = cited from earlier work
[2] = in vivo; cited from earlier work
RSV strain A = experiment: UT-15 by subcutaneous micro-infusion pump in RSV-infected BALB/c mice (mortality, body weight); format: in vivo; settings: for survival percentage: FIG. 7
Text: The genetically altered mice and control mice were anesthetized with ketamine and xylazine, as described in Peebles, et al., 2001, J. Med. Virol. 63:178–88, which is incorporated herein by reference. The mice were intranasally infected with 10^7 pfu of RSV strain A. American Type Culture Collection, Manassas, Va.
In order to insert a micro-infusion pump into a mouse, the skin of the back, slightly posterior to the scapulae will be shaved and washed with ethanol. Subcutaneous implantation is technically the easiest and least invasive procedure. The usual site for subcutaneous implantation of Azlet pumps in mice is on the back, slightly posterior to the scapulae. Pumps are commercially available at: Alzet Osmotic Pumps, Durect Corporation, P.O. Box 530, Cupertino, Calif. 95015-0530. Absorption of the compound placed in the pump by local capillaries results in systemic administration. For subcutaneous pump implantation, the following steps are performed:
A micro-infusion pump system was inserted into a mouse as previously described in Example 8. After the micro-infusion pump was in place, UT-15 was administered subcutaneously for two weeks starting on the day prior to infection. The BALB/c mice received either different concentrations of UT-15 or water only, as indicated below. BALB/c mice were infected with RSV strain A as described in Example 1. There were 8–10 mice per group. The weight of each mouse was monitored on a daily basis. The mice were put on a scale to measure their weight.
Mice having received micro-infusion pumps received infusion of either water of some concentration of UT-15 for a period of 2 weeks after starting the day prior to RSV infection. […] Also shown are the percentage of body weight for each of the animals on each given day for the other animals either receiving no UT-15 or other concentrations of UT-15.

vaccinia virus = settings: BALB/c mice; cited from earlier work
RSV = experiment: Indomethacin in drinking water in RSV-infected BALB/c mice (weight loss curve); format: in vivo
Text: Genetically altered mice having the BALB/c background were obtained from Charles Rivers Laboratories, 251 Ballardvale Street,. Wilmington, Mass. 01887-1000. Modification to the level of PGI2 was accomplished by introducing indomethacin to the BALB/c mice. Indomethacin is a drug that is used to treat arthritis and other rheumatologic conditions and inhibits the activity of both COX-1 and COX-2 such that the formation of prostanoids, specifically PGI2, are not produced. Indomethacin is given to the mice in their drinking water in order to block the cyclooxygenase enzymes in order to determine the effect of the cyclooxygenase pathway on the immune response to RSV infection. Indomethacin is commercially available from Sigma, Inc. St. Louis, Mo.
As best seen in FIG. 4, mice treated with indomethacin have a much difference weight loss curve. Within the experiment, BALB/c mice were provided water having indomethacin, 30 micrograms/ml.
Female BALB/c mice that are 8–10 weeks of age and that weigh approximately 20 grams were used to determine the amount of weight loss that results from an RSV infection. The BALB/c mice were infected with RSV strain A as described in Example 1. Subsequent to infection, the mice received water in their drinking bottles to drink during the course of an infection. On day 5, the mice started to lose weight and the peak of illness as measured by maximal weight loss occurred on day 9. […] These mice then recovered and were fully back to baseline by day 19 after infection. FIG. 3 is an example of a typical body weight curve that occurs with RSV induced illness. On the Y-axis is the body weight as a percentage of the pre-infection weight. This curve is very reproducible although factors such as the strain of the mouse and the viral load administered can alter the severity and duration of illness.

[3] = indomethacin 30 micrograms/ml in drinking water, FIG. 4

Q: With `CCCCC[C@H](O)/C=C/[C@@H]1[C@H]2C/C(=C/CCCC(=O)O)O[C@H]2C[C@H]1O` [Epoprostenol] as the molecule, how does the side effects ([1]; in vivo, iv) read?
A: flushing, headache, chest pain, sweating, flu-like symptoms, nausea, vomiting, and systemic hypotension

Q: With `CC#CCC(C)[C@H](O)/C=C/[C@@H]1[C@H]2C/C(=C/CCCC(=O)O)C[C@H]2C[C@H]1O` (stereo partly drawn) [Iloprost] as the molecule, how does the “share of oral iloprost reaching the systemic circulation” value [2] read?
A: less than 20%

Q: And the “safety of administration to patients” value ([1]; iloprost: long-term, pulmonary hypertension patients, UT-15: patients treated for another disease)?
A: safe

Q: Which results are given for `CCCCC[C@H](O)CC[C@@H]1[C@H]2Cc3cccc(OCC(=O)O)c3C[C@H]2C[C@H]1O` [UT-15]?
A: protection against RSV-induced mortality (percent survival) (RSV strain A; FIG. 7 legend and summary text, 2.0 and 20 ng/kg/min vs none): protects against RSV-induced mortality; also recorded: increase percentage of survival; protection against RSV-induced illness (percent of body weight) (RSV strain A; FIG. 8 legend, 20, 30, 40 ng/kg/min vs none): protects against RSV-induced illness; recovery period of the surviving mice vs mice without UT-15 (RSV strain A; UT-15 2.0 ng/kg/min): the recovery period was quicker; survival percentage (RSV strain A; UT-15 2.0 ng/kg/min subcutaneous for two weeks from the day prior to infection): next best survival percentage; survival percentage (RSV strain A; UT-15 20 ng/kg/min subcutaneous for two weeks from the day prior to infection): best survival percentage; recovery period for body weight (RSV strain A; UT-15 20 ng/kg/min, compared with 0, 30 and 40 ng/kg/min, FIG. 8): quickest recovery period for body weight; safety of administration to patients ([1]; in vivo): safely used

Q: Which “mortality from vaccinia virus infection vs non-treated mice” value (vaccinia virus) does the source give for `CC(=O)Oc1ccccc1C(=O)O` [aspirin] here?
A: marked increase in mortality

Q: Which “effect on RSV-induced illness” value (RSV; FIG. 4 legend) does the source give for `COc1ccc2c(c1)c(CC(=O)O)c(C)n2C(=O)c1ccc(Cl)cc1` [indomethacin] here?
A: exacerbates and delays recover from RSV-induced illness

Q: What about the “day of peak illness (weight loss)” value (RSV; [3]) of the same molecule?
A: 11 days

Q: What about the “recovery of body weight after RSV infection” value (RSV; [3]) of the same molecule?
A: did not recover their weight

Q: What about the “mortality from vaccinia virus infection vs non-treated mice” value (vaccinia virus) of the same molecule?
A: marked increase in mortality

Reference: patent US7132453B2, “Method of using prostacyclin to treat respiratory syncytial virus infections” (Vanderbilt University, priority 2002, dated 2006)
